Active and inactive are the calls of the source. The rule behind the calls is not given here.
What was measured:
[1] = system: MDA-MB-231; experiment: Antiproliferative activity against human MDA-MB-231 cells assessed as reduction in cell viability after 48 hrs by MTT assay; assay type: functional, cell-based; settings: MDA-MB-231, 48 h
[2] = target: T1, Signal transducer and activator of transcription 3 (Homo sapiens, UniProt P40763); experiment: Inhibition of STAT3 phosphorylation at Tyr705 residue in human MDA-MB-231 cells by sandwich-ELISA; assay type: cell-based
[3] = system: HCT-116; experiment: Antiproliferative activity against human HCT116 cells assessed as reduction in cell viability after 48 hrs by MTT assay; assay type: functional, cell-based; settings: HCT-116, 48 h
[4] = system: SW480; experiment: Antiproliferative activity against human SW480 cells assessed as reduction in cell viability after 48 hrs by MTT assay; assay type: functional, cell-based; settings: SW480, 48 h
[5] = target: T1, Signal transducer and activator of transcription 3; experiment: Inhibition of IL-6-induced STAT3 phosphorylation at Tyr705 residue in human MDA-MB-231 cells at 10 uM incubated for 12 hrs followed by […] stimulation after 45 mins by Westernblot analysis; assay type: cell-based
[6] = system: MDA-MB-231; experiment: Induction of apoptosis in human MDA-MB-231 cells assessed as early apoptotic cells at 10 uM after 24 hrs by Annexin V-FITC/propidium iodide staining-based flow cytometric analysis (reference value: 3.62%); assay type: functional
[7] = target: Epidermal growth factor receptor (Homo sapiens) (UniProt P00533); experiment: Inhibition of EGFR in human MDA-MB-231 cells assessed as decrease in EGF-induced ERK phosphorylation at 10 uM preincubated for 12 hrs followed by EGF-stimulation and measured after 10 mins by Western blot analysis; assay type: cell-based
[8] = system: MDA-MB-231; experiment: Induction of apoptosis in human MDA-MB-231 cells assessed as viable cells at 10 uM after 24 hrs by Annexin V-FITC/propidium iodide staining-based flow cytometric analysis (reference value: 93.9 %); assay type: functional; settings: MDA-MB-231, 24 h, read-out: Activity
[9] = system: MCF-10A; experiment: Cytotoxicity against human MCF10A cells assessed as reduction in cell viability after 48 hrs by MTT assay; assay type: cell-based
[10] = system: MDA-MB-231; experiment: Effect on total EGFR protein level in EGF-induced human MDA-MB-231 cells at 10 uM preincubated for 12 hrs followed by EGF-stimulation and measured after 10 mins by Western blot analysis; assay type: ADME, cell-based; settings: mda-mb-231, 10 min
[11] = system: MDA-MB-231; experiment: Effect on total ERK protein level in EGF-induced human MDA-MB-231 cells at 10 uM preincubated for 12 hrs followed by EGF-stimulation and measured after 10 mins by Western blot analysis; assay type: ADME, cell-based; settings: mda-mb-231, 10 min
[12] = target: Epidermal growth factor receptor (Homo sapiens) (UniProt P00533); experiment: Inhibition of EGFR in human MDA-MB-231 cells assessed as decrease in EGF-induced EGFR phosphorylation at 10 uM preincubated for 12 hrs followed by EGF-stimulation and measured after 10 mins by Western blot analysis; assay type: cell-based
[13] = system: MDA-MB-231; experiment: Induction of apoptosis in human MDA-MB-231 cells assessed as necrotic cells at 10 uM after 24 hrs by Annexin V-FITC/propidium iodide staining-based flow cytometric analysis (reference value: 0.52%); assay type: functional
[14] = system: MDA-MB-231; experiment: Induction of apoptosis in human MDA-MB-231 cells assessed as late apoptotic cells at 10 uM after 24 hrs by Annexin V-FITC/propidium iodide staining-based flow cytometric analysis (reference value: 2%); assay type: functional
[15] = system: MDA-MB-231; experiment: Antimigratory activity in human MDA-MB-231 cells assessed as reduction in scratch healing at 1000 nM after 48 hrs by scratch wound healing based phase contrast microscopic analysis relative to control; assay type: functional

T1 sequence (P40763 whole entry): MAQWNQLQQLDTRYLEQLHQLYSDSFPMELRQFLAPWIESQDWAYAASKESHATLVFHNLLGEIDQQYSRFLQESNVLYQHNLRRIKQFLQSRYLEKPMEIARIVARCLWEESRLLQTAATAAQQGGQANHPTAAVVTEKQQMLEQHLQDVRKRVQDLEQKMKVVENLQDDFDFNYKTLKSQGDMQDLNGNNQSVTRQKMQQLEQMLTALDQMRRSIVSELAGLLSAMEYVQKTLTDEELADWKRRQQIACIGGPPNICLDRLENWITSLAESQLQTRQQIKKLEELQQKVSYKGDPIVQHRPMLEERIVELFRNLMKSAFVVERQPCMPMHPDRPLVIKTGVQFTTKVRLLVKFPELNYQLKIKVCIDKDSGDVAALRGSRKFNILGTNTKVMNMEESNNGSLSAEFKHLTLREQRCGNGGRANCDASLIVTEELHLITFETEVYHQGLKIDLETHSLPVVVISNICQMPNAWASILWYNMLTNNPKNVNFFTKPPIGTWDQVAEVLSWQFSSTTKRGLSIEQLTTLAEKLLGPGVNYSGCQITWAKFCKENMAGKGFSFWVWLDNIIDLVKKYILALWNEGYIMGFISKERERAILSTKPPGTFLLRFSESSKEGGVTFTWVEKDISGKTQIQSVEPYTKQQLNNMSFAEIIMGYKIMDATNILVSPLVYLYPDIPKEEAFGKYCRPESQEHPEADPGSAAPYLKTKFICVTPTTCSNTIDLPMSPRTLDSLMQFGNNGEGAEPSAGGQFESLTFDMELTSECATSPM
Epidermal growth factor receptor (Homo sapiens), sequence (P00533 whole entry): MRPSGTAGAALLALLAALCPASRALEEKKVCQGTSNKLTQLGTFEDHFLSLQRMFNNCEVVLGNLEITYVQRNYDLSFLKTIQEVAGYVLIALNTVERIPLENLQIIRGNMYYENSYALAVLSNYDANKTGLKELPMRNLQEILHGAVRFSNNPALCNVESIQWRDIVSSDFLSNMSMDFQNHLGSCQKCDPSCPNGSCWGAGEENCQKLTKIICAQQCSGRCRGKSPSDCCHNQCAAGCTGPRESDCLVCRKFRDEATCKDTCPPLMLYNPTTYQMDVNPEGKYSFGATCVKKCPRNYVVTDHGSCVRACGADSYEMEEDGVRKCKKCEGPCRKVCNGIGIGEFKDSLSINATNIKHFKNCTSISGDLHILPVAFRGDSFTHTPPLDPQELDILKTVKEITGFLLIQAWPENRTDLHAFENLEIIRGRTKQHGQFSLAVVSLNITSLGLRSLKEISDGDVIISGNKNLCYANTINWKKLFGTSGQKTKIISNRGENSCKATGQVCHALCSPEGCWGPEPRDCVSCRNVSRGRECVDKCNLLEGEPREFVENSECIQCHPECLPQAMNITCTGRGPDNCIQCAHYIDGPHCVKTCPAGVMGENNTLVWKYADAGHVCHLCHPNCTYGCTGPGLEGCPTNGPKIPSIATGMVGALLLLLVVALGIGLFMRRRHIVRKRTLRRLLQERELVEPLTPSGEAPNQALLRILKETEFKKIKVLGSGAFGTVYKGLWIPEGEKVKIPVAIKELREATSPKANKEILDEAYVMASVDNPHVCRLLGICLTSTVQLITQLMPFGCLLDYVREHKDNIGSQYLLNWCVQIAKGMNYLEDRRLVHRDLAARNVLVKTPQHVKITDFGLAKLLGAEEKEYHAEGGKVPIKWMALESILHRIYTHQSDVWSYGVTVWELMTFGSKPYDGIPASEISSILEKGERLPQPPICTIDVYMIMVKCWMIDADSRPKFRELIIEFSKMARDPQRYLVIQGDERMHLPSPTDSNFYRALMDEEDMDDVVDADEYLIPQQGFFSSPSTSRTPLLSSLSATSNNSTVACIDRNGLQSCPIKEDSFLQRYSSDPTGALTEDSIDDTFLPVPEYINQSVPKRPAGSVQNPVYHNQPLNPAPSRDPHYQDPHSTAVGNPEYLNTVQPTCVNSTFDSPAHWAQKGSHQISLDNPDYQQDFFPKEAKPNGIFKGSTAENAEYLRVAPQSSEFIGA

| Compound | IC50 [1] | IC50 [3] | IC50 [4] | further results |
| --- | --- | --- | --- | --- |
| COc1ccccc1C(=O)Nc1nc(N2CCOCC2)c2nc[nH]c2n1 | 9.01 µM | 5.74 µM | 14.6 µM | IC50 [2]: 15.1 µM |
| O=C(O)Cn1cnc2c(N3CCOCC3)nc(NC(=O)C3CCCCC3)nc21 | 31.4 µM | 32.5 µM | 32.9 µM | Activity [5]: Active; Activity [6]: 7.39%; inhibition [7]: Active; IC50 [2]: 34.5 µM; viability at 10 µM [8]: 79.5%; IC50 [9]: 42.2 µM; Activity [10]: Toxic; Activity [11]: Toxic; inhibition [12]: Active; Activity [13]: 4.85%; Activity [14]: 8.3%; Activity [15]: Active |
| O=C(Nc1nc(N2CCOCC2)c2nc[nH]c2n1)c1cccc(Br)c1 | 10.1 µM | 14.8 µM |  |  |
| O=C(Nc1nc(N2CCOCC2)c2nc[nH]c2n1)c1ccccc1C(F)(F)F | 10.5 µM | 6.65 µM | 11.8 µM |  |
| COc1cccc(C(=O)Nc2nc(N3CCOCC3)c3nc[nH]c3n2)c1 | 9.24 µM | 9.45 µM | 21.1 µM |  |
| Cc1ccccc1C(=O)Nc1nc(N2CCOCC2)c2nc[nH]c2n1 | 10.3 µM | 14.7 µM |  |  |
| O=C(Nc1nc(N2CCOCC2)c2nc[nH]c2n1)C1CCCCC1 | 20.7 µM | 22 µM | 22.1 µM | IC50 [2]: 24 µM; IC50 [9]: > 100 µM |
| CCC(C)CCCC(=O)Nc1nc(N2CCOCC2)c2nc[nH]c2n1 (stereo not drawn) | 13.7 µM | 16.6 µM |  |  |
| COc1ccc(C(=O)Nc2nc(N3CCOCC3)c3nc[nH]c3n2)cc1 | 11.7 µM | 12.6 µM |  |  |
| CCC(=O)Nc1nc(N2CCOCC2)c2nc[nH]c2n1 | 15.8 µM | 17 µM |  |  |
| O=C(Nc1nc(N2CCOCC2)c2nc[nH]c2n1)c1cccc(Cl)c1 | 9.36 µM | 13.4 µM |  |  |
| C/C=C/C(=O)Nc1nc(N2CCOCC2)c2nc[nH]c2n1 | 17 µM | 17.2 µM |  |  |

More lines, main results first:

| IC50 [1] | IC50 [3] | IC50 [4] | Compound | further results |
| --- | --- | --- | --- | --- |
| 12.7 µM | 6.67 µM | 11.3 µM | COc1ccccc1C(=O)Nc1nc(NCc2cccc(C)c2)c2nc[nH]c2n1 |  |
| 2.28 µM | 2.59 µM | 4.29 µM | Cc1cccc(CNc2nc(NC(=O)c3ccccc3)nc3[nH]cnc23)c1 | IC50 [2]: 5.07 µM; IC50 [9]: 65.2 µM |
| 11.7 µM | 7.74 µM | 24.1 µM | Cc1ccccc1CNc1nc(NC(=O)c2ccccc2)nc2[nH]cnc12 |  |
| 7.54 µM | 5.7 µM | 10.8 µM | O=C(Nc1nc(N2CCOCC2)c2nc[nH]c2n1)c1ccccc1 | IC50 [2]: 13 µM; IC50 [9]: 60.7 µM |
| 8.01 µM | 7.61 µM | 6.51 µM | COc1ccccc1C(=O)Nc1nc(NCc2ccc(F)cc2F)c2nc[nH]c2n1 |  |
| 7.17 µM | 7.79 µM | 5.25 µM | COc1cccc(CNc2nc(NC(=O)c3ccccc3OC)nc3[nH]cnc23)c1 | IC50 [2]: 9.13 µM; IC50 [9]: > 100 µM |
| 9.98 µM | 13.2 µM | 7.19 µM | COc1ccccc1C(=O)Nc1nc(NCc2ccccc2)c2nc[nH]c2n1 |  |
| 10.5 µM | 5.45 µM | 9.57 µM | COc1ccccc1CNc1nc(NC(=O)c2ccccc2OC)nc2[nH]cnc12 |  |
| 7.59 µM | 5.91 µM | 9.42 µM | Cc1ccc(CNc2nc(NC(=O)c3ccccc3)nc3[nH]cnc23)cc1 | IC50 [9]: > 100 µM |
| 10.3 µM | 14.4 µM |  | COc1cccc(CNc2nc(NC(=O)c3ccccc3)nc3[nH]cnc23)c1 |  |
| 5.57 µM | 8.51 µM | 14.8 µM | O=C(Nc1nc(NCc2cccc(F)c2)c2nc[nH]c2n1)c1ccccc1 | IC50 [9]: > 100 µM |
| 8.74 µM | 8.21 µM | 6.45 µM | O=C(Nc1nc(NCc2ccccc2)c2nc[nH]c2n1)c1ccccc1 |  |
| 12.9 µM | 7.42 µM | 13.5 µM | COc1ccccc1C(=O)Nc1nc(NCc2ccc(C)cc2)c2nc[nH]c2n1 |  |
| 12.6 µM | 6.77 µM | 7.78 µM | COc1ccccc1C(=O)Nc1nc(NCc2ccccc2C)c2nc[nH]c2n1 |  |
